Measured values published in patent US6265402A, “Use of 2-phenylmorpholin-5-one derivatives” (Nikken Chemicals Co., Ltd., priority 1996, dated 2001).

Assays:
Type IV PDE = Type IV PDE inhibitory activity; format: biochemical; conditions: Type IV PDE partially purified from rat neutrophils; 3H-cAMP substrate, 30° C., 30 minutes
Protocol: Type I, III, IV, and V PDE isozymes were prepared to study the PDE inhibitory activities of and selectivities with the compound of the invention [Trends Pharmacol Sci., 12, 19-27 (1992)]. Type I PDE was purchased from Sigma Corp. Type III, IV, and V PDE isozymes were partially purified from platelets (Type III and V) or neutrophils (Type IV) collected from rats. Each enzyme source was homogenized in a buffer (pH 6.5) containing 20 mM bisTris, 2 mM EDTA (i.e., ethylenediamine tetraacetate), 0.1 mM PMSF (i.e., phenylmethylsulfonyl fluoride), 5 mM 2-mercaptoethanol, 0.001 mM pepstatin and 0.01 mM leupeptin and was centrifuged at 30000×G for 30 minutes to obtain a supernatant, which was applied to an ion exchange column (Q-sepharose First Flow, Pharmacia Corp.) and was eluted with 0 to 1M sodium acetate. Partially purified isozymes were identified by observing the effects by conventional inhibitors.
Each PDE isozyme and the test compound dissolved in DMSO (i.e., dimethyl sulfoxide) were added to 50 mM Tris-HCl buffer containing 5 mM magnesium chloride. ^3 H-cAMP (for type III and IV PDE) or ^3 H-cGMP (for type I and V PDE) were added as substrates and were reacted at 30° C. for 30 minutes. The reaction was terminated by placing the test tube in boiling water of 100° C. for 5 minutes. The nucleotides formed by PDE were broken down by 5'-nucleotidase to ^3 H-adenosine or 3H-guanosine. The unreacted substrate and reaction product were separated through an ion-exchange column (i.e., QAE sephadex, Pharmacia Corp.) The eluted ^3 H-nucleoside was measured for its radioactivity by a liquid scintillation counter. The inhibitory activities of the compound of the present invention are shown by the IC50 value (M). Further, the inhibitory activities of the test samples against Type I, III, and V are 1/10 or less than that against type IV.

rat neutrophils = test: Inhibitory action of super oxide anion release from rat neutrophils; format: cell-based; conditions: Neutrophil, stimulation with 0.3 μM calcium ionophore A23187, chemiluminescence, Lusigenin
Protocol: Inhibitory effects on activity of rat neutrophils
The release of super oxide anions was measured so as to study the inhibitory effects of the compound of the present invention on inflammatory leukocytes, that is, neutrophils.
Blood sample was collected from Wister rats anesthetized with ether. It was superposed on a blood cell separation solution (Polymorphoprep 1.113, made by Naicomed Farm), and the neutrophils were separated by centrifugation. The neutrophils were resuspended in a Hank's balanced salt solution at a concentration of 0.5×10^4 cells/ml 0.1 mM of Lusigenin and the test substance dissolved in DMSO were added to 2 ml of the cell-suspension. The chemiluminescence generated by stimulation of 0.3 μM calcium ionophore A23187 was measured by a chemiluminescence reader so as to evaluate the release of super oxide anions.

[1] = tested on: antigen-induced bronchospasms; test: Inhibitory effect on Antigen-Induced Bronchospasm (Anti-Asthmatic action); format: in vivo; conditions: Cavia porcellus; Hartley male guinea pig sensitized with Ovalbumin; intravenous, 10 minutes before 0.2 mg/kg OA i.v.; Konzett-Roessler method; read-out: Action for suppressing antigen-induced bronchospasms ED50
Protocol: Inhibitory effect on Antigen-Induced Bronchospasm (Anti-Asthmatic action)
A Hartley male guinea pig was sensitized by intramuscular administration of 35 mg Ovalbumin (OA) on first day and fourth day. A tracheal canula was introduced in the guinea pig anesthetized with pentobarbital and artificial ventilation was performed 25 to 29 days after the first sensitization. The overflow of the ventilation was measured by the Konzett-Roessler method while 0.2 mg/kg OA were administered intravenously. The test compound was dissolved in polyethylene glycol 400 and intravenously administered 10 minutes before administration of the antigens.

COc1ccc(C2CNC(=O)CO2)cc1OC (stereo not drawn) [Compound No. 1, 2-(3,4-dimethoxyphenyl)morpholin-5-one]
IC50 (Type IV PDE): 37 µM | IC50 (rat neutrophils): 29 µM

COc1ccc(C2CNC(=O)CO2)cc1OC1CCCC1 (stereo not drawn) [Compound No. 2, 2-(3-cyclopentyloxy-4-methoxyphenyl)morpholin-5-one]
ED50 [1]: 0.48 mg/kg | IC50 (Type IV PDE): 1.5 µM | IC50 (rat neutrophils): 5.8 µM

COc1ccc(C2(C)CNC(=O)CO2)cc1OC (stereo not drawn) [Compound No. 9, 2-(3,4-dimethoxyphenyl)-2-methylmorpholin-5-one]
IC50 (Type IV PDE): 16 µM | IC50 (rat neutrophils): 1.6 µM

COc1ccc(C2CN(Cc3ccc(Br)cc3)C(=O)CO2)cc1OC1CCCC1 (stereo not drawn) [Compound No. 13, 4-(4-bromobenzyl)-2-(3-cyclopentyloxy-4-methoxyphenyl)morpholin-5-one]
IC50 (Type IV PDE): 1.8 µM | IC50 (rat neutrophils): 1.4 µM

COc1ccc(C2CN(C)C(=O)CO2)cc1OC1CCCC1 (stereo not drawn) [Compound No. 14, 2-(3-cyclopentyloxy-4-methoxyphenyl)-4-methylmorpholin-5-one]
ED50 [1]: 2.1 mg/kg | IC50 (Type IV PDE): 0.31 µM

COc1ccc(C2(C)CNC(=O)CO2)cc1OC1Cc2ccccc2C1 (stereo not drawn) [Compound No. 27, 2-[3-(2-indanyloxy)-4-methoxyphenyl]-2-methylmorpholin-5-one]
ED50 [1]: 7.99 mg/kg | IC50 (Type IV PDE): 0.13 µM

COc1ccc(C2CNC(=O)CO2)cc1OCC1(C)CC1 (stereo not drawn) [Compound No. 35, 2-[3-[(1-methylcyclopropyl)methoxy]-4-methoxyphenyl]morpholin-5-one]
ED50 [1]: 6.22 mg/kg | IC50 (Type IV PDE): 1.3 µM

COc1ccc(C2CNC(=O)CO2)cc1OCC1CCCC1 (stereo not drawn) [Compound No. 36, 2-(3-cyclopentylmethoxy-4-methoxyphenyl)morpholin-5-one]
ED50 [1]: 1 mg/kg | IC50 (Type IV PDE): 6.9 µM

COc1ccc(C2CNC(=O)CO2)cc1OCC1CCC1 (stereo not drawn) [Compound No. 38, 2-(3-cyclobutylmethoxy-4-methoxyphenyl)morpholin-5-one]
ED50 [1]: 7.83 mg/kg | IC50 (Type IV PDE): 4.6 µM

COc1ccc(C2CNC(=O)CO2)cc1OCC(C)C (stereo not drawn) [Compound No. 39, 2-[3-(2-methylpropoxy)-4-methoxyphenyl]morpholin-5-one]
ED50 [1]: 8.04 mg/kg | IC50 (Type IV PDE): 7.8 µM
